According to PMC9866191, “Novel 9-Benzylaminoacridine Derivatives as Dual Inhibitors of Phosphodiesterase 5 and Topoisomerase II for the Treatment of Colon Cancer” (Molecules, 2023):

What was measured:
Assay type in all cases: cell-based
[1] = system: panel of 60 human tumor cell lines; assay: NCI 60-cell line one-dose screen (mean); conditions: mean of the 60 cell lines, single dose 10^−5 M, read-out: Mean % Growth Inhibition
Summary of the method: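 Each cancer cell line within the NCI-60 set received compound at 10^−5 M. The percentage of inhibition served as the measure of activity.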

[2] = system: A549/ATCC; assay: NCI-60 one-dose screen; conditions: Homo sapiens, Non-small cell lung panel, single dose 10^−5 M, read-out: Growth inhibition %
[3] = system: ACHN; assay: NCI-60 one-dose screen; conditions: Homo sapiens, Renal Cancer panel, single dose 10^−5 M, read-out: Growth inhibition %
[4] = system: CAKI-1; assay: NCI-60 one-dose screen; conditions: Homo sapiens; CAKI-1, Renal Cancer panel; single dose 10^−5 M; read-out: Growth inhibition %
[5] = system: COLO 205; assay: NCI-60 one-dose screen; conditions: Homo sapiens; COLO 205, Colon Cancer panel; single dose 10^−5 M; read-out: Growth inhibition %
[6] = system: DU-145; assay: NCI-60 one-dose screen; conditions: Homo sapiens; DU-145, Prostate Cancer panel; single dose 10^−5 M; read-out: Growth inhibition %
[7] = system: HCC-2998; assay: NCI-60 one-dose screen; conditions: Homo sapiens; HCC-2998, Colon Cancer panel; single dose 10^−5 M; read-out: Growth inhibition %
[8] = system: HOP-62; assay: NCI-60 one-dose screen; conditions: Homo sapiens; HOP-62, Non-small cell lung panel; single dose 10^−5 M; read-out: Growth inhibition %
[9] = system: HOP-92; assay: NCI-60 one-dose screen; conditions: Homo sapiens; HOP-92, Non-small cell lung panel; single dose 10^−5 M; read-out: Growth inhibition %
[10] = system: K-562; assay: NCI-60 one-dose screen; conditions: Homo sapiens, K562; K-562, Leukemia panel; single dose 10^−5 M; read-out: Growth inhibition %
[11] = system: MDA-MB-231/ATCC; assay: NCI-60 one-dose screen; conditions: Homo sapiens, Breast Cancer panel, single dose 10^−5 M, read-out: Growth inhibition %
[12] = system: MDA-MB-435; assay: NCI-60 one-dose screen; conditions: Homo sapiens; MDA-MB-435, Melanoma panel; single dose 10^−5 M; read-out: Growth inhibition %
[13] = system: NCI-H226; assay: NCI-60 one-dose screen; conditions: Homo sapiens; NCI-H226, Non-small cell lung panel; single dose 10^−5 M; read-out: Growth inhibition %
[14] = system: NCI-H23; assay: NCI-60 one-dose screen; conditions: Homo sapiens; NCI-H23, Non-small cell lung panel; single dose 10^−5 M; read-out: Growth inhibition %
[15] = system: NCI/ADR-RES; assay: NCI-60 one-dose screen; conditions: Homo sapiens, Ovarian Cancer panel, single dose 10^−5 M, read-out: Growth inhibition %
[16] = system: OVCAR-3; assay: NCI-60 one-dose screen; conditions: Homo sapiens; OVCAR-3, Ovarian Cancer panel; single dose 10^−5 M; read-out: Growth inhibition %
[17] = system: OVCAR-4; assay: NCI-60 one-dose screen; conditions: Homo sapiens; OVCAR-4, Ovarian Cancer panel; single dose 10^−5 M; read-out: Growth inhibition %
[18] = system: OVCAR-5; assay: NCI-60 one-dose screen; conditions: Homo sapiens; OVCAR-5, Ovarian Cancer panel; single dose 10^−5 M; read-out: Growth inhibition %
[19] = system: OVCAR-8; assay: NCI-60 one-dose screen; conditions: Homo sapiens; OVCAR-8, Ovarian Cancer panel; single dose 10^−5 M; read-out: Growth inhibition %
[20] = system: RXF 393; assay: NCI-60 one-dose screen; conditions: Homo sapiens; RXF 393, Renal Cancer panel; single dose 10^−5 M; read-out: Growth inhibition %
[21] = system: SF-295; assay: NCI-60 one-dose screen; conditions: Homo sapiens; SF-295, CNS Cancer panel; single dose 10^−5 M; read-out: Growth inhibition %
[22] = system: SK-MEL-2; assay: NCI-60 one-dose screen; conditions: Homo sapiens; SK-MEL-2, Melanoma panel; single dose 10^−5 M; read-out: Growth inhibition %
[23] = system: SK-MEL-5; assay: NCI-60 one-dose screen; conditions: Homo sapiens; SK-MEL-5, Melanoma panel; single dose 10^−5 M; read-out: Growth inhibition %
[24] = system: SK-OV-3; assay: NCI-60 one-dose screen; conditions: Homo sapiens; SK-OV-3, Ovarian Cancer panel; single dose 10^−5 M; read-out: Growth inhibition %
[25] = system: SN12C; assay: NCI-60 one-dose screen; conditions: Homo sapiens, Renal Cancer panel, single dose 10^−5 M, read-out: Growth inhibition %
[26] = system: SNB-19; assay: NCI-60 one-dose screen; conditions: Homo sapiens; SNB-19, CNS Cancer panel; single dose 10^−5 M; read-out: Growth inhibition %
[27] = system: SNB-75; assay: NCI-60 one-dose screen; conditions: Homo sapiens; SNB-75, CNS Cancer panel; single dose 10^−5 M; read-out: Growth inhibition %
[28] = system: T-47D; assay: NCI-60 one-dose screen; conditions: Homo sapiens, T47D, Breast Cancer panel, single dose 10^−5 M, read-out: Growth inhibition %
[29] = system: U251; assay: NCI-60 one-dose screen; conditions: Homo sapiens, U-251; U251, CNS Cancer panel; single dose 10^−5 M; read-out: Growth inhibition %
[30] = system: UACC-62; assay: NCI-60 one-dose screen; conditions: Homo sapiens; UACC-62, Melanoma panel; single dose 10^−5 M; read-out: Growth inhibition %
[31] = system: UO-31; assay: NCI-60 one-dose screen; conditions: Homo sapiens; UO-31, Renal Cancer panel; single dose 10^−5 M; read-out: Growth inhibition %

SMILES | inhibition at 10 µM [1] [%] | inhibition at 10 µM [2] [%] | inhibition at 10 µM [3] [%] | inhibition at 10 µM [4] [%] | inhibition at 10 µM [5] [%] | inhibition at 10 µM [6] [%] | inhibition at 10 µM [7] [%] | inhibition at 10 µM [8] [%] | inhibition at 10 µM [9] [%] | inhibition at 10 µM [10] [%] | inhibition at 10 µM [11] [%] | inhibition at 10 µM [12] [%] | inhibition at 10 µM [13] [%] | inhibition at 10 µM [14] [%] | inhibition at 10 µM [15] [%] | inhibition at 10 µM [16] [%] | inhibition at 10 µM [17] [%] | inhibition at 10 µM [18] [%] | inhibition at 10 µM [19] [%] | inhibition at 10 µM [20] [%] | other results
Cc1cccc(CNc2c3ccccc3nc3ccccc23)c1 [Compound 3, Acridin-9-yl-(3-methylbenzyl)-amine] | 77.2 | 77.4 | 84.2 | 82.3 | 116 | 66.1 | 96.4 | 59.6 | 93 | 98.1 | 61.3 | 70.9 | 59.4 | 70.3 | 74.3 | 69.2 | 72.1 | 64.2 | 79.7 | 102 | inhibition at 10 µM [21]: 74.7%; inhibition at 10 µM [22]: 62%; inhibition at 10 µM [23]: 80.2%; inhibition at 10 µM [24]: 54.7%; inhibition at 10 µM [25]: 73.9%; inhibition at 10 µM [26]: 70.3%; inhibition at 10 µM [27]: 63%; inhibition at 10 µM [28]: 74.7%; inhibition at 10 µM [29]: 76.3%; inhibition at 10 µM [30]: 57.2%; inhibition at 10 µM [31]: 85.3%
c1ccc(CNc2c3ccccc3nc3ccccc23)cc1 [Compound 1, Acridin-9-yl-benzyl-amine] | 62.7 | 71.5 | 81.9 | 66.9 | 92.7 | 51.4 | 61.8 | 54 | 74.1 | 87.7 | 42.1 | 57.2 | 48.3 | 58.8 | 62.4 | 48.3 | 56.8 | 54.3 | 73.9 | 58.1 | inhibition at 10 µM [21]: 62.4%; inhibition at 10 µM [22]: 39.2%; inhibition at 10 µM [23]: 36.9%; inhibition at 10 µM [24]: 53.3%; inhibition at 10 µM [25]: 62.5%; inhibition at 10 µM [26]: 60.6%; inhibition at 10 µM [27]: 35.6%; inhibition at 10 µM [28]: 62.2%; inhibition at 10 µM [29]: 61.5%; inhibition at 10 µM [30]: 39%; inhibition at 10 µM [31]: 76.2%
COc1ccc(CNc2c3ccccc3nc3ccccc23)c(OC)c1 [Compound 17, Acridin-9-yl-(2,4-dimethoxybenzyl)-amine] | 60.8 | 64.8 | 74.2 | 63.8 | 75.4 | 50.6 | 64.4 | 52.8 | 114 | 86.8 | 56.4 | 61.3 | 53.7 | 65.1 | 64.4 | 30.8 | 60.3 | 49.7 | 62.2 | 66.6 | inhibition at 10 µM [21]: 63.7%; inhibition at 10 µM [22]: 5.98%; inhibition at 10 µM [23]: 29.6%; inhibition at 10 µM [24]: 36.7%; inhibition at 10 µM [25]: 69%; inhibition at 10 µM [26]: 66.5%; inhibition at 10 µM [27]: 35.5%; inhibition at 10 µM [28]: 47.1%; inhibition at 10 µM [29]: 58.2%; inhibition at 10 µM [30]: 45.5%; inhibition at 10 µM [31]: 72%
COc1ccc(CNc2c3ccccc3nc3ccccc23)cc1OC [Compound 18, Acridin-9-yl-(3,4-dimethoxybenzyl)-amine] | 81.6 | 83.7 | 95.9 | 89.5 | 94.7 | 75.3 | 69.9 | 65.5 | 110 | 91.2 | 80.6 | 70.6 | 72 | 84.9 | 80.7 | 56.3 | 78.6 | 72.5 | 76.2 | 96.4 | inhibition at 10 µM [21]: 81.9%; inhibition at 10 µM [22]: 61.4%; inhibition at 10 µM [23]: 82.5%; inhibition at 10 µM [24]: 58.9%; inhibition at 10 µM [25]: 77.5%; inhibition at 10 µM [26]: 78.2%; inhibition at 10 µM [27]: 75.2%; inhibition at 10 µM [28]: 74.2%; inhibition at 10 µM [29]: 76.8%; inhibition at 10 µM [30]: 73.2%; inhibition at 10 µM [31]: 87.9%
